Data reported in ChEMBL document CHEMBL4706515, “Discovery of new [1,2,4] Triazolo[1,5-a]Pyrimidine derivatives that Kill gastric cancer cells via the mitochondria pathway” (Eur J Med Chem, 2020).
The source made the active and inactive calls. The rule behind the calls is not given here.

Tests used:
[1] = system: GES1; experiment: Cytotoxicity against human GES1 cells assessed as inhibition of cell growth at measured after 72 hrs by SRB assay; format: cell-based; conditions: ges1, 72 h
[2] = system: EJ; experiment: Antiproliferative activity against human EJ cells assessed as inhibition of cell growth at measured after 72 hrs by SRB assay; format: functional
[3] = system: SGC-7901; experiment: Induction of apoptosis in human SGC-7901 cells assessed as late apoptotic cells at 2.5 uM measure after 24 hrs by Annexin-PI staining based Flowcytometry method (reference value: 1.29%); format: functional
[4] = system: MGC-803; experiment: Cytotoxicity against human MGC-803 cells assessed as inhibition of cell viability incubated for 1 hr with Z-LEHD-FMK followed by addition of compound; format: functional, cell-based
[5] = system: MGC-803; experiment: Induction of mitochondrial membrane potential loss in human MGC-803 cells at 1.25 uM measured after 24 hrs by JC-1 staining based flow cytometry method (reference value: 0.344%); conditions: Mitochondria
[6] = system: MGC-803; experiment: Induction of mitochondrial membrane potential loss in human MGC-803 cells at 2.5 uM measured after 24 hrs by JC-1 staining based flow cytometry method (reference value: 0.344%); conditions: Mitochondria
[7] = system: MGC-803; experiment: Induction of apoptosis in human MGC-803 cells assessed as late apoptotic cells at 0.625 uM measure after 24 hrs by Annexin-PI staining based Flowcytometry method (reference value: 7.06%); format: functional
[8] = system: SGC-7901; experiment: Inhibition of cell proliferation in human SGC-7901 cells at 2.5 uM measured after 72 hrs by SRB assay; format: functional, cell-based
[9] = system: MGC-803; experiment: Induction of apoptosis in human MGC-803 cells assessed as necrotic cells at 0.625 uM measure after 24 hrs by Annexin-PI staining based Flowcytometry method (reference value: 3.13%); format: functional
[10] = system: MGC-803; experiment: Induction of apoptosis in human MGC-803 cells assessed as late apoptotic cells at 1.25 uM measure after 24 hrs by Annexin-PI staining based Flowcytometry method (reference value: 7.06%); format: functional
[11] = system: MGC-803; experiment: Induction of mitochondrial membrane potential loss in human MGC-803 cells at 2.5 uM measured after 24 hrs by fluorescence method; conditions: Mitochondria

Cc1cc(Nc2ccc(C(=O)/C=C/c3cccc(Br)n3)cc2)n2nc(SCc3nc4ccccc4[nH]3)nc2n1
Activity [1]: Non-Toxic | GI50 [2]: > 10 µM | Activity [3]: 5.53% | inhibition [4]: inactive | Activity [5]: 10.1% | Activity [6]: 3.25% | Activity [7]: 1.81% | inhibition [8]: inactive | Activity [9]: 1.72% | Activity [10]: 1.95% | Activity [11]: Active
